Like-named read-outs stand apart in the source and are kept apart here.
Tests used:
GABAA = test: Affinity for GABAA ([3H]Muscimol); type: binding; settings: rat whole brain; 5 nM [3H]Muscimol, pH 7.2; read-out: CI50 (the source's name)
Description: GABAA : whole brain 20 mn at 4° C., in 50 nM TRIS-ClH buffer (pH 7.2) added to 0.5%. TRITON X-100, against 5 nM [^3 H] Muscimol.

[1] = Irwin's test (modified, Morpurgo), behaviour in mice; type: in vivo; settings: oral
Description: The Irwin's test, modified according to Morpurgo's Technique (1971) has been carried out to search optional alterations of the spontaneous behaviour under the action of the compound of example III or of a H1-antihistaminic of the first generation Dexchloropheniramine, known to induce some effects of drowsiness in the person. After administration by oral way, the mice have been kept under observation for 30 mn then have submitted to a seri. of simple test of behavioural screening after 30 mn, 3 hours and 24 hours.

receptors of H1-type = receptors of H1-type (Cavia porcellus, UniProt P31389); test: Histamine contraction of isolated ileon of guinea pig; settings: for activity compared with Terfenadine on isolated ileon: difference not significant
Text: The shift of the relationship between contracturing effect and concentration of histamine by the compound to be studied, stamps an anti-H1 activity.

Adenosine A1 = biological target: T1, Adenosine A1 (Rattus norvegicus, UniProt P25099); test: Affinity for adenosine A1 ([3H]cyclohexyladenosine); type: binding
T1 construct: membranar receptors of various rats organs; from tissue; host or cells: rat cortex
T1 sequence (P25099 1-326): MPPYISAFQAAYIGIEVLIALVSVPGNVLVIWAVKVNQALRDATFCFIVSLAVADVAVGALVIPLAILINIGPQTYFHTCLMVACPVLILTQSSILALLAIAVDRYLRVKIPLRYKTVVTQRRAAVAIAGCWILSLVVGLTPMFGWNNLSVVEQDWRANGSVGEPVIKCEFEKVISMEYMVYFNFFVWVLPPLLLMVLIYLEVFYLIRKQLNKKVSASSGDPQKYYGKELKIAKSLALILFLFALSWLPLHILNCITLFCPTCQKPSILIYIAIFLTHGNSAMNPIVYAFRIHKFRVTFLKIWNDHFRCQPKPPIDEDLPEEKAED
Description: (§1) A broad range of membranar receptors of various rats organs has been tested according to the same principle than the H1 receptor under the following conditions which are summarized:
Adenosine A1: cortex, 90 mn at 25° C. in 50 mM TRIS-ClH buffer (pH 7.7) against 1 nMol of [^3 H] cyclohexyladenosine
(§2) The more weak is the CI50, the more high is the affinity.

GABAB = biological target: T2, GABAB (Rattus norvegicus, UniProt Q9Z0U4); test: Affinity for GABAB ([3H]Baclofen); type: binding
T2 construct: membranar receptors of various rats organs; from tissue; host or cells: rat cerebellum
Description: as §1
GABAB : Cerebellum, 10 mn at 22° C. in 50 mM TRIS-ClH buffer (pH 7.4) added to 1.2 mM SO^4 Mg and 2.5 mM Cl2 Ca, against 20 nM of [^3 H] Baclofen.
as §2

[2] = type: in vivo, mice
Text: The principle of this test consists in chronometering the duration for which mice maintain itself on a rod rotating at a constant speed. Compounds which are endowed with sedative or myorelaxing or inhibitory of the motor coordination, will induce a precocious fall, before 120 seconds which are the maximals period of study. […] This test takes place 30 mn and 60 mn after administration. […] Chlorpromazine, major neuroleptic used as positive standard in the Rota-rod Test, caused the fall before the time granted, of 90% of the mice from the dosage of 4 mg/kg by intraperitoneal way.

[3] = biological target: T3, H1 receptors of rat cortexes (Rattus norvegicus, UniProt P31390); test: Affinity for H1 receptors, rat cortex membranes ([3H]Mepyramine); type: binding; settings: read-out: CI50 (50% inhibitory concentration) on H1 receptors, 2 nM tritiated Mepyramine, 30 mn, 25° C., pH 7.4
T3 construct: membranar preparations of homogenates of rat cortexes or guinea pig lungs; from tissue; host or cells: rat cortex membranes
Description: (§3) After 30 mn at 25° C. and at pH 7.4, in a 50 mM TRIS-ClH buffer for the membrans of the cortex or a 0.5 M PO4 HNa2 /PO4 H2 K buffer for the lungs membrans, the residual bound fraction of tritiated ligand is counted by scintillation in a liquid medium after filtration on an apparatur of the Brandel's type and several washings.

Muscarinic M1 = biological target: T4, Muscarinic M1 (Rattus norvegicus, UniProt P08482); test: Affinity for muscarinic M1 ([3H]-pirenzepine); type: binding; settings: rat cortex, striatum and hypocampus; 2 nM [3H]-pirenzepine, pH 7.4; read-out: CI50 (the source's name)
T4 construct: membranar receptors of various rats organs; from tissue; host or cells: rat cortex, striatum and hippocampus (pool)
T4 sequence (P08482 1-460): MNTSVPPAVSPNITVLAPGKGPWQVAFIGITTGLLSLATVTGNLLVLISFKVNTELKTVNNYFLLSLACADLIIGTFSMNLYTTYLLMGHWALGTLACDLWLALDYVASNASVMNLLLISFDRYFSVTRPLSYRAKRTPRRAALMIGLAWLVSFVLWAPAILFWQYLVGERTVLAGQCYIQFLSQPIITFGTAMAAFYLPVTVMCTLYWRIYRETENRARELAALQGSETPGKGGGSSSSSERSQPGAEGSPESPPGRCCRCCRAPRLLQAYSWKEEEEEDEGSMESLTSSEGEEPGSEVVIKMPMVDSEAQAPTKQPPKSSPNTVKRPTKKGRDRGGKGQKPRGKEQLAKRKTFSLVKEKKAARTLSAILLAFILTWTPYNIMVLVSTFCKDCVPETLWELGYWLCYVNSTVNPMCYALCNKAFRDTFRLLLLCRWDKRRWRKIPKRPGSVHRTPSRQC
Description: Muscarinic M1: pool of cortex, striatum and hypocampus, 60 mn at 25° C. in 10 mM PO4 HNa2 /PO4 H2 K buffer (pH 7.4) against 2 nM [^3 H]-pirenzepinc.

Adenosine A2 = biological target: T5, Adenosine A2 (Rattus norvegicus, UniProt P30543); test: Affinity for adenosine A2 ([3H]NECA); type: binding
T5 construct: membranar receptors of various rats organs; from tissue; host or cells: rat striatum
Description: as §1
Adenosine A2: striatum 60 mn at 25° in 50 mM TRIS-ClH buffer (pH 7.7) added with 50 nM cyclopentyladenosine, 10 mM Cl2 Mg and 0.1 Unit/ml […] against 4 nM of [^3 H] NECA (5'-N-ethylcarboxamido adenosine).
as §2

Sigma receptor = biological target: T6, Sigma receptor (Rattus norvegicus, UniProt Q9R0C9); test: Affinity for Sigma receptors ([3H](+)3-PPP); type: binding
T6 construct: membranar receptors of various rats organs; from tissue; host or cells: rat whole brain
Description: as §1
Sigma receptors: whole brain, 2 hours at 22° C. in 50 mM TRIS-ClH buffer (pH 8) against 2 nM of [^3 H] (+)3-PPP (3-(3-hydroxyphenyl)N-(1-propyl) piperidine).
as §2

[4] = biological target: T7, H1-receptors of guinea pigs lungs (Cavia porcellus, UniProt P31389); test: Affinity for H1 receptors, guinea pig lung membranes ([3H]Mepyramine); type: binding; settings: read-out: CI50 (50% inhibitory concentration) on H1 receptors, 2 nM tritiated Mepyramine, 30 mn, 25° C., pH 7.4
T7 construct: membranar preparations of homogenates of rat cortexes or guinea pig lungs; from tissue; host or cells: guinea pig lung membranes
Description: as §3

[5] = tested on: Central sites to benzodiazepines; test: Affinity for central sites to benzodiazepines ([3H]-Flunitrazepam); type: binding; settings: rat whole brain; 0.3 nM [3H]-Flunitrazepam, pH 7.1; read-out: CI50 (the source's name)
Description: Central sites to benzodiazepines: whole brain, 90 mn at 0° C. in 50 mM TRIS-ClH buffer (pH 7.1) against 0.3 nM [^3 H]-Flunitrazepam.

[6] = tested on: bronchospasm due to histamine; test: Bronchospasm to histamine aerosol in guinea pigs, intraperitoneal; type: in vivo, guinea pig; settings: for ED50: Cavia porcellus, ip, 0.5 h, read-out: ED50 (efficient dosage at 50%) against histamine bronchospasm
Description: Inhalating an aerosol at 1%, of histamine (aqeuous solution in distilled water, nebulization with a apparatus HOSPITAK) causes in the guinea pigs, a bronchospasm which leads with immobilization of the animals on their own side. The time needed for the animals to lie down is measured for 5 minutes maximum.

[7] = Single maximal non-toxic dosage by oral way in mice; type: in vivo; settings: single oral dosage until 1000 mg/kg
Description: On the other side a mydriasis has been noticed after 3 hours. […] This is less fine than the Irvin's Test during which the animals are handled and interact with the experimenter.

[8] = tested on: bronchospasm due to histamine; test: Bronchospasm to histamine aerosol in guinea pigs, oral; type: in vivo, guinea pig; settings: single dosage 10 mg/kg
Description: By oral way the single dosage of 10 mg/kg has been studied as a function of time.

Muscarinic M2 = biological target: T8, Muscarinic M2 (Rattus norvegicus, UniProt P10980); test: biochemical; type: binding
T8 sequence (P10980 1-466): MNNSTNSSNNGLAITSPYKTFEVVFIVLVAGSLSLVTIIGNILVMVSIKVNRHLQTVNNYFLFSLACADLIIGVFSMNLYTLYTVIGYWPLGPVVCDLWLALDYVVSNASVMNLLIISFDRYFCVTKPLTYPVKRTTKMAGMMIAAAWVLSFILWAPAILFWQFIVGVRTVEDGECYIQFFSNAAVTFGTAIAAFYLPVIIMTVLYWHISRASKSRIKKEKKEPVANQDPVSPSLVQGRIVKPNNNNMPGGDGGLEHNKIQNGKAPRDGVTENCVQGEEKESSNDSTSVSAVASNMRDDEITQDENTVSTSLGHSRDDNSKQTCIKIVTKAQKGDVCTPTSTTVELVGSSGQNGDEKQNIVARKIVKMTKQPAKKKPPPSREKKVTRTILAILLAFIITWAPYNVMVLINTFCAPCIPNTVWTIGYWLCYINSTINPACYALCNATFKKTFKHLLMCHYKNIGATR

[9] = biological target: T9, Peripheral sites to the benzodiazepines (Rattus norvegicus, UniProt P16257); test: Affinity for peripheral sites to benzodiazepines ([3H]PK 11195); type: binding
T9 construct: membranar receptors of various rats organs; from tissue; host or cells: rat cortex
Description: as §1
Peripheral sites to the benzodiazepines: Cortex 90 mn at 25° C. in 90 mM PO4 HNa2 /PO4 H2 K buffer, 81 mM ClNa and […] (pH 7.4) against 1 nM [^3 H]PK 11195.
as §2

[10] = rat cortex, 1 nMol [3H]cyclohexyladenosine, pH 7.7, read-out: CI50 (the source's name)
[11] = rat cerebellum, 20 nM [3H]Baclofen, pH 7.4, read-out: CI50 (the source's name)
[12] = rat striatum, 4 nM [3H]NECA, pH 7.7, read-out: CI50 (the source's name)
[13] = intraperitoneal, 10 mg/kg, 30 minutes after administration
[14] = rat cortex, 1 nM [3H]PK 11195, pH 7.4, read-out: CI50 (the source's name)

T6 sequence (Q9R0C9 whole entry): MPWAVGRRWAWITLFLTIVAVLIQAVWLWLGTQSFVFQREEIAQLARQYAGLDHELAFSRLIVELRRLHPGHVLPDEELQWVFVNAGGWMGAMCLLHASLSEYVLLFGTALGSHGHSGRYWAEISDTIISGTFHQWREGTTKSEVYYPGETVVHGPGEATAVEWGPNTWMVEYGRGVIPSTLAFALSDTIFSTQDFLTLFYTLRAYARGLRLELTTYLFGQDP
T5 sequence (P30543 whole entry): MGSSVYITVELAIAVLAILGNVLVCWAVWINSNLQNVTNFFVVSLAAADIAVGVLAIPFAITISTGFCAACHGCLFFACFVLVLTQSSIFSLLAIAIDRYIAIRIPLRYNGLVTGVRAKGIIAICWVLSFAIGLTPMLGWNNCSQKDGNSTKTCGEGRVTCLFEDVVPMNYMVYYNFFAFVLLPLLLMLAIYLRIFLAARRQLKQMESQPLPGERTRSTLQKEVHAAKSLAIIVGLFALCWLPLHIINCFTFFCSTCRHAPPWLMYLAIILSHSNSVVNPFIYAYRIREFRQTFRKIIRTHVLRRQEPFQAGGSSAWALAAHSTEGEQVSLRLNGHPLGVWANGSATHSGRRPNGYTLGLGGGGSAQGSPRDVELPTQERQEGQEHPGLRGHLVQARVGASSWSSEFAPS
receptors of H1-type, sequence (P31389 whole entry): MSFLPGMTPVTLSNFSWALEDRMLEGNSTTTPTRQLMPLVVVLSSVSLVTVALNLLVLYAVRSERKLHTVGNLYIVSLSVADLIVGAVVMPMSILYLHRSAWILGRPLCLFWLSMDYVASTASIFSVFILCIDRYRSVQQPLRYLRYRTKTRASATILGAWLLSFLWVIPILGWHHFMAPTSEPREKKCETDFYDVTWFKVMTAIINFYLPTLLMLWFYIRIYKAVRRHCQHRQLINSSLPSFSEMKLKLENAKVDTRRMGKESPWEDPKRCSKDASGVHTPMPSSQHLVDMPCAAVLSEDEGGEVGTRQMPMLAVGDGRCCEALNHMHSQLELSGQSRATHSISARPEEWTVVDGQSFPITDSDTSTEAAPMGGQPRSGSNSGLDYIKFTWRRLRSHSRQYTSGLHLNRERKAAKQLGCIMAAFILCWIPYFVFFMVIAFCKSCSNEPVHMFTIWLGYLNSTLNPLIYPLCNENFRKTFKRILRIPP
T2 sequence (Q9Z0U4 17-960 limits assumed): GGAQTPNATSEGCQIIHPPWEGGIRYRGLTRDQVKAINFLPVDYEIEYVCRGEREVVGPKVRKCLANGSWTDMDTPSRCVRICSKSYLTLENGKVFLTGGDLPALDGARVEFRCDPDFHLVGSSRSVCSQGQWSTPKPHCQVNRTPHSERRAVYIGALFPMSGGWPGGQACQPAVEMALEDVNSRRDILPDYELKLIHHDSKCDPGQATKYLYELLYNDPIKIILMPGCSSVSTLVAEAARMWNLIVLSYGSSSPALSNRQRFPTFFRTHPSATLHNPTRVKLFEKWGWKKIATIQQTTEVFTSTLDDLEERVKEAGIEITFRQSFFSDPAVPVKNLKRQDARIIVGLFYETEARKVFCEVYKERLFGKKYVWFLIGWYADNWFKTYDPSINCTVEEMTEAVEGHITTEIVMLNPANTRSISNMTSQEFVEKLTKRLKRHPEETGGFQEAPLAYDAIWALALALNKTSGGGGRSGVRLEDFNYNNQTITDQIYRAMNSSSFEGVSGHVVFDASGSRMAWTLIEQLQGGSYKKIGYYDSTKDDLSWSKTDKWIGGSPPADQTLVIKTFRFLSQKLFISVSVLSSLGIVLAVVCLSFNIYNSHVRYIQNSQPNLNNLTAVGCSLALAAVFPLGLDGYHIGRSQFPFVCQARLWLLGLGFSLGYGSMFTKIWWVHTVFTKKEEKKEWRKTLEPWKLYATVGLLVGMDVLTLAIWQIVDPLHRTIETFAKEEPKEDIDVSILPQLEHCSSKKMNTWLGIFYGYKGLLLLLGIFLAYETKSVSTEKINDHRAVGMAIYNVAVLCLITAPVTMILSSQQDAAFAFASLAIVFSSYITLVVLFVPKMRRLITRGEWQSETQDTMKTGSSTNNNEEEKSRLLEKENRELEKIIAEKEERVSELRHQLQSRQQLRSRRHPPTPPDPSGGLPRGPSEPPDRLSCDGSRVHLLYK
T2 sequence (O88871 41-940 partner): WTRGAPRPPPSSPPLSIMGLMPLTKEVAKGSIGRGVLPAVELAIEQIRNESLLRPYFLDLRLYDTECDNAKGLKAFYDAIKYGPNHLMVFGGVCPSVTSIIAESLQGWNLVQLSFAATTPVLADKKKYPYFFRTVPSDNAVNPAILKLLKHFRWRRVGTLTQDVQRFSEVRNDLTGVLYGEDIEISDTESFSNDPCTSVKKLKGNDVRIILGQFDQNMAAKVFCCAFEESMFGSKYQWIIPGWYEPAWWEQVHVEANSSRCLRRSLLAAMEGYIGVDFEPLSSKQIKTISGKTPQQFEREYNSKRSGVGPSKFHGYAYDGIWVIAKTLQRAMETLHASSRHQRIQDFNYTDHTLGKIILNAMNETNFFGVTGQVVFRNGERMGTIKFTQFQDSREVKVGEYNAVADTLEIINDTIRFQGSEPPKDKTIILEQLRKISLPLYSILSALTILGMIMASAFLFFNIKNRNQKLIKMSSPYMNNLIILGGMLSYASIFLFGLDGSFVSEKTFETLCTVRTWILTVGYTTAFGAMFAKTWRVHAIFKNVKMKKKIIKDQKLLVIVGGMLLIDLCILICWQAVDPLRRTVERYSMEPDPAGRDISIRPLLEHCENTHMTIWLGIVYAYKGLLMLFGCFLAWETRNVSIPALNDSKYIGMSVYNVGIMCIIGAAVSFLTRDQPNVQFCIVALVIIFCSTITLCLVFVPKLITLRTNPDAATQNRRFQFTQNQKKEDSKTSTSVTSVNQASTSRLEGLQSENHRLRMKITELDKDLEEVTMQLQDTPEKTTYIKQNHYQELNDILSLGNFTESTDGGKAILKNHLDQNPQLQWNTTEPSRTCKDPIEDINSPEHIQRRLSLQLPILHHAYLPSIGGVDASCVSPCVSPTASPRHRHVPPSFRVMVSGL
T3 sequence (P31390 whole entry): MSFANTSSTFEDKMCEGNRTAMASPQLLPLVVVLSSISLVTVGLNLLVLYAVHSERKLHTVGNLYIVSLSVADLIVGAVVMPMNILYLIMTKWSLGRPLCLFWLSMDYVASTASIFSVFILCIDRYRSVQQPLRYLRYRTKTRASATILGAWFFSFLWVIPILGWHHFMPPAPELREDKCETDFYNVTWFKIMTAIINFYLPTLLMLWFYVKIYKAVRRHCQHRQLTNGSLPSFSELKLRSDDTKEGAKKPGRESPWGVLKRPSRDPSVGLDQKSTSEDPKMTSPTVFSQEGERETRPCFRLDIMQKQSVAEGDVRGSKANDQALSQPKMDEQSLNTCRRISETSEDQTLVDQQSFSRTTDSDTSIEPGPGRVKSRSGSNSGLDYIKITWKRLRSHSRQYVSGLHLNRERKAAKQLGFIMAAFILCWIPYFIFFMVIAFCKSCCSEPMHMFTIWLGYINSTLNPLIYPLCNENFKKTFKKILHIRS
T7 sequence (P31389 whole entry): as the sequence (P31389 whole entry) above

## CC(C)(C)c1ccc(C(O)CCCN2CCN(c3nc4ccccc4n3Cc3ccc(F)cc3)CC2)cc1 (centres unmarked) [example III]
GABAA
  IC50: > 10 µM
[1]; maximal tested dosage 400 mg/kg, at 3 hours only
  behavioural alteration (Irwin's test): a very weak passivity in half of the animals
Receptors of H1-type; 10^-5 M
  effect on histamine contraction of isolated ileon: partially irreversible inhibition
  activity compared with Terfenadine on isolated ileon: the opposite seems to be produced
Receptors of H1-type; 10^-6 M
  effect on histamine contraction of isolated ileon: inhibition of the competitive type
  activity compared with Terfenadine on isolated ileon: slightly more active than Terfenadine
Receptors of H1-type; 10^-7 M
  effect on histamine contraction of isolated ileon: no effect
Adenosine A1; [10]
  IC50: > 10 µM
GABAB; [11]
  IC50: > 10 µM
[2]; oral, until highest tested dosage 100 mg/kg, 30 and 60 mn, versus vehicle
  alteration of rota-rod performance: did not alter the performances
[3]
  IC50: 1.1 µM
Muscarinic M1
  IC50: > 10 µM
Adenosine A2; [12]
  IC50: > 10 µM
Sigma receptor; rat whole brain, 2 nM [3H](+)3-PPP, pH 8, read-out: CI50 (the source's name)
  IC50: > 10 µM
[4]
  IC50: 2.7 µM
[5]
  IC50: > 10 µM
[6]; intraperitoneal, from regression curve
  ED50: ~6.7 mg/kg
[6]; intraperitoneal
  protection against histamine bronchospasm: poorly efficient
[6]; [13]
  protection against histamine bronchospasm: total protection of all the animals
[7]
  clinical symptoms, search for maximal non-toxic dosage: do not display any clinical symptom
[8]
  duration of protection against histamine bronchospasm: 12 h
[8]; 24 hours
  animals with total protection (more than 5 minutes) at 24 hours: 50%
Muscarinic M2; pH 7.5, read-out: CI50 (the source's name)
  IC50: > 10 µM
[9]; [14]
  IC50: > 10 µM

## CC(C)(C)c1ccc(C(O)CCCN2CCC(C(O)(c3ccccc3)c3ccccc3)CC2)cc1 (centres unmarked) [Terfenadine]
GABAA
  IC50: > 10 µM
Adenosine A1
  IC50: > 10 µM
GABAB
  IC50: > 10 µM
Adenosine A2
  IC50: > 10 µM
Sigma receptor
  IC50: > 10 µM
[5]
  IC50: > 10 µM
[6]
  ED50: ~7 mg/kg
[6]; intraperitoneal
  protection against histamine bronchospasm: poorly efficient
[6]; [13]
  protection against histamine bronchospasm: total protection of all the animals
[8]
  duration of protection against histamine bronchospasm: 4 h
Muscarinic M2
  IC50: > 10 µM
[9]
  IC50: > 10 µM

## COc1ccc(CN(CCN(C)C)c2ccccn2)cc1 [Mepyramine]
GABAA
  IC50: > 10 µM
Adenosine A1; [10]
  IC50: > 10 µM
GABAB; [11]
  IC50: > 10 µM
Adenosine A2; [12]
  IC50: > 10 µM
Sigma receptor
  IC50: 0.59 µM
Sigma receptor; versus pentazocine
  affinity for Sigma-receptor, times weaker than pentazocine: ~20 times weaker
[5]
  IC50: > 10 µM
Muscarinic M2
  IC50: 3.5 µM
[9]; [14]
  IC50: > 10 µM

## CN(C)CC[C@@H](c1ccc(Cl)cc1)c1ccccn1 [Dexchlorpheniramine]
[1]; 100 mg/kg, 30 mn
  behavioural alteration (Irwin's test): a hyperactivity and a slight irritability
[1]; 100 mg/kg, 3 hours
  behavioural alteration (hyperactivity and slight irritability): persisting
[1]; 100 mg/kg, 24 hours
  behavioural alteration (hyperactivity and slight irritability): disappearing
[1]; 100 mg/kg, after 3 hours
  ocular effect (Irwin's test): mydriasis

## CN(C)CCCN1c2ccccc2Sc2ccc(Cl)cc21 [Chlorpromazine]
[2]; intraperitoneal, from 4 mg/kg
  mice falling before the time granted (120 seconds): 90%

From patent publication US5461059A, “Derivatives of terbutylphenyl-1-amino-4-hydroxybutane their preparation processes and the pharmaceutical compositions containing them” (priority 1990, dated 1995)
